We go through 1 substance from US8236729B2, “Herbicidal compositions” (Bayer Cropscience AG, priority 2004, dated 2012).

The subject of this test is Lolium multiflorum. As to the kind of experiment: Outdoor trial, post-emergence herbicidal action (Example 5.2). In kind it is in vivo. The conditions noted are these: 1080 g of AS/ha, application at the 2-5-leaf stage (post-emergence), evaluation 55 days after treatment. Here is the method:
The herbicidal efficacy of the active compounds or active compound mixtures was scored visually by comparing the treated pots (soil) with untreated controls. The damage and development of all above-ground plant parts was recorded. Scoring was done on a percentage scale (100% action=all plants dead or not emerged; 50% action=50% of the plants and green plant parts dead or not emerged; 0% action=no discernible action=like control plot). The score figures of in any case 4 repetitions (pots) were averaged.
When applying the combinations according to the invention, herbicidal effects are frequently observed on a harmful plant species which exceed the formal total of the effects of the herbicides present when these are applied by themselves. Alternatively, it is observed in some cases that a lower application rate is required for the herbicide combination in order to achieve the same effect on a harmful plant species in comparison with the individual products. […] When the data observed already exceed the formal total of the data in the experiments with individual applications, they likewise exceed the expected value according to Colby, which is calculated using the formula below and is likewise regarded as an indication of synergism (cf. S. R. Colby; in Weeds 15 (1967) pp. 20 to 22): E=A+B−(A·B/100) […]

Consider “Glyphosate-isopropylammonium [(B2.1.2.1)]”, for which the “Herbicidal action [%] against Lolium multiflorum” value is 18%.
